Results on one compound are retold here after article PMC12931155, “Colorectal Cancer Cell's Weapon: RNF32 Engages SPP1^+ Macrophages to Foster Liver Metastasis, Targeted by Indole‐3‐Acetic Acid” (Advanced Science, 2025).

In general, Kd refers to a measure of binding affinity in units of concentration.

In this experiment the target is T1, RNF32 (GFP-RNF32) (Homo sapiens, UniProt Q9H0A6).
T1 construct: GFP-RNF32 fusion from plasmid, expressed in HCT116 cells, diluted cell lysate (not purified)
The experiment can be described thus: microscale thermophoresis, GFP-RNF32 in HCT116 lysate. Format: biochemical. (MST reads how a fluorescent partner responds to local heating, with and without ligand.)

T1 sequence (Q9H0A6 whole entry, the tested form may be a part): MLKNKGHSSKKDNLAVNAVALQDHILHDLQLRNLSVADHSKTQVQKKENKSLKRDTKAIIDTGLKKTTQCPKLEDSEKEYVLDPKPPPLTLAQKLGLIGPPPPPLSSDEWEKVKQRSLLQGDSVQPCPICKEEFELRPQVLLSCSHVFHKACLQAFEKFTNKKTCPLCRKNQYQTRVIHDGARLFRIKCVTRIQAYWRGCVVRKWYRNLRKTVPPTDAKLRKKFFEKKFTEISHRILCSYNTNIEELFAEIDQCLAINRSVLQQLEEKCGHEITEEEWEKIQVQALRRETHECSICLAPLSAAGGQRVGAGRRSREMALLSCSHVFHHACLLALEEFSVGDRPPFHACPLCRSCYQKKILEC

The compound `O=C(O)Cc1c[nH]c2ccccc12` [indole‐3‐acetic acid] displayed an equilibrium dissociation constant (Kd) of 41.3 µM.
